In ChEMBL document CHEMBL6120970, “Discovery and Functional Characterization of a Potent, Selective, and Metabolically Stable PROTAC of the Protein Kinases DYRK1A and DYRK1B” (J Med Chem, 2024):
The source made the active and inactive calls. The rule behind the calls is not given here.

Legend:
[1] = Metabolic stability in rat liver microsomes assessed as intrinsic clearance; format: ADME, Microsome; settings: read-out: CLH
[2] = target: T1, Protein cereblon/Dual specificity tyrosine-phosphorylation-regulated kinase 1B (Homo sapiens) (UniProt Q9Y463+Q96SW2); assay: PROTAC activity at CRBN/DYRK1B in HEK293 cells overexpressing DYRK1B-p69 assessed as induction of degradation of DYRK1B at 1 uM measured after 24 hrs by Western blot analysis; format: cell-based
SH-SY5Y = assay: Cytotoxicity against human SH-SY5Y cells assessed as reduction in cell viability at 100 nM measured upto 96 hrs in presence of cisplatin by real-time cell analysis; format: functional, cell-based
[3] = Metabolic stability in mouse liver microsomes assessed as intrinsic clearance; format: ADME, Microsome; settings: read-out: CLH
[4] = target: T2, Protein cereblon/Dual specificity tyrosine-phosphorylation-regulated kinase 1A (Homo sapiens, UniProt Q13627+Q96SW2); assay: PROTAC activity at CRBN/DYRK1A in HEK293 cells assessed as induction of degradation of DYRK1A at 100 nM pretreated with leucettine-41 followed by compound addition and incubated for 8 hrs; format: cell-based
[5] = MRT in mouse at 10 mg/kg, po administered as single dose; format: ADME, organism-based; settings: in vivo
[6] = Cmax in mouse at 10 mg/kg, ip administered as single dose; format: ADME, organism-based; settings: in vivo
[7] = target: T2, Protein cereblon/Dual specificity tyrosine-phosphorylation-regulated kinase 1A; assay: PROTAC activity at CRBN/DYRK1A in HEK293 cells assessed as induction of degradation of DYRK1A at 100 nM pretreated with CB-5083 followed by compound addition and incubated for 8 hrs; format: cell-based
[8] = target: T2, Protein cereblon/Dual specificity tyrosine-phosphorylation-regulated kinase 1A; assay: PROTAC activity at CRBN/DYRK1A in HEK293 cells expressing GFP-SF3B1 assessed as inhibition of SF3B1 phosphorylation at 10 nM measured for 48 hrs by Western blot analysis; format: cell-based
[9] = Cmax in mouse at 10 mg/kg, po administered as single dose; format: ADME, organism-based; settings: in vivo
[10] = target: T2, Protein cereblon/Dual specificity tyrosine-phosphorylation-regulated kinase 1A; assay: PROTAC activity at CRBN/DYRK1A in human HeLa cells assessed as induction of degradation of DYRK1A at 100 nM incubated for 8 hrs; format: cell-based
HEK293 = assay: Effect on DCAF7 expression in HEK293 cells at 1 to 10000 nM; format: functional, cell-based; settings: Homo sapiens, dose 1-10000 nM
[11] = Bioavailability in mouse at 10 mg/kg, ip administered as single dose; format: ADME, organism-based; settings: in vivo
[12] = Permeability of the compound by PAMPA method; format: ADME; settings: read-out: permeability
[13] = Oral availability in mouse at 10 mg/kg administered as single dose; format: ADME, organism-based; settings: in vivo
[14] = Volume of distribution at steady state in mouse at 1 mg/kg, iv administered as single dose; format: ADME, organism-based; settings: in vivo, read-out: Vdss
[15] = target: T2, Protein cereblon/Dual specificity tyrosine-phosphorylation-regulated kinase 1A; assay: PROTAC activity at CRBN/DYRK1A in Flp-In-T-REx-293 cells overexpressing GFP-DYRK1A assessed as initial rate of degradation at 1 uM measured upto 6 hrs by fluorescence based phase contrast microscopy analysis; format: cell-based
[16] = AUC last in mouse at 10 mg/kg, po administered as single dose; format: ADME, organism-based; settings: in vivo
[17] = target: T2, Protein cereblon/Dual specificity tyrosine-phosphorylation-regulated kinase 1A; assay: PROTAC activity at CRBN/DYRK1A in HEK293 cells assessed as induction of degradation of DYRK1A at 100 nM incubated for 24 hrs; format: cell-based
[18] = target: T2, Protein cereblon/Dual specificity tyrosine-phosphorylation-regulated kinase 1A; assay: PROTAC activity at CRBN/DYRK1A in HEK293 cells assessed as induction of degradation of DYRK1A at 100 nM measured for 48 hrs by Western blot analysis; format: cell-based
[19] = target: T2, Protein cereblon/Dual specificity tyrosine-phosphorylation-regulated kinase 1A; assay: PROTAC activity at CRBN/DYRK1A in human SH-SY5Y cells assessed as induction of degradation of DYRK1A at 100 nM incubated for 8 hrs relative to control; format: cell-based
[20] = Metabolic stability in human liver microsomes assessed as half life; format: ADME, Microsome
[21] = target: T1, Protein cereblon/Dual specificity tyrosine-phosphorylation-regulated kinase 1B (Homo sapiens); assay: PROTAC activity at CRBN/DYRK1B in HEK293 cells assessed as induction of degradation of DYRK1B at 100 nM pretreated with bortezomib followed by compound addition and incubated for 8 hrs; format: cell-based
[22] = Permeability of the compound in human Caco-2 cells across apical to basolateral side; format: ADME, cell-based; settings: read-out: permeability
[23] = target: T1, Protein cereblon/Dual specificity tyrosine-phosphorylation-regulated kinase 1B (Homo sapiens); assay: PROTAC activity at CRBN/DYRK1B in HEK293 cells assessed as induction of degradation of DYRK1B at 100 nM incubated for 24 hrs; format: cell-based
[24] = target: T1, Protein cereblon/Dual specificity tyrosine-phosphorylation-regulated kinase 1B (Homo sapiens); assay: PROTAC activity at CRBN/DYRK1B in HEK293 cells overexpressing DYRK1B p65 assessed as induction of degradation of DYRK1B at 1 uM measured after 24 hrs by Western blot analysis; format: cell-based
[25] = Half life in mouse at 10 mg/kg, po administered as single dose; format: ADME, organism-based; settings: in vivo
[26] = target: T2, Protein cereblon/Dual specificity tyrosine-phosphorylation-regulated kinase 1A; assay: PROTAC activity at CRBN/DYRK1A in HEK293 cells assessed as induction of degradation of DYRK1A at 1 to 10000 nM incubated for 24 hrs in presence of CaNDY; format: cell-based; settings: dose 1-10000 nM
[27] = AUC infinity in mouse at 10 mg/kg, ip administered as single dose; format: ADME, organism-based; settings: in vivo
[28] = target: T1, Protein cereblon/Dual specificity tyrosine-phosphorylation-regulated kinase 1B (Homo sapiens); assay: PROTAC activity at CRBN/DYRK1B in HEK293 cells assessed as induction of degradation of DYRK1B at 100 nM pretreated with MLN4924 followed by compound addition and incubated for 8 hrs; format: cell-based
[29] = Metabolic stability in rat liver microsomes assessed as half life; format: ADME, Microsome
[30] = target: T1, Protein cereblon/Dual specificity tyrosine-phosphorylation-regulated kinase 1B (Homo sapiens); assay: PROTAC activity at CRBN/HibiT-tagged DYRK1B in Flp-In-T-REx-293 cells assessed as induction of degradation of DYRK1B by measuring maximum efficacy at 1 uM measured after 24 hrs by NanoBiT luciferase assay relative to control; format: cell-based
[31] = Tmax in mouse at 10 mg/kg, ip administered as single dose; format: ADME, organism-based; settings: in vivo
[32] = Plasma protein binding (unknown origin); format: ADME, cell-free; settings: read-out: PPB
[33] = AUClast in mouse at 1 mg/kg, iv administered as single dose; format: ADME, organism-based; settings: in vivo
[34] = Metabolic stability in human liver microsomes assessed as intrinsic clearance; format: ADME, Microsome; settings: read-out: CLH
[35] = target: T2, Protein cereblon/Dual specificity tyrosine-phosphorylation-regulated kinase 1A; assay: PROTAC activity at CRBN/DYRK1A in HEK293 cells assessed as induction of degradation of DYRK1A at 100 nM preincubated for 24 to 72 hrs followed by washout and subsequent addition of medium containing compounds measured for 48 hrs; format: cell-based; settings: time 72-120 hrs
[36] = target: T2, Protein cereblon/Dual specificity tyrosine-phosphorylation-regulated kinase 1A; assay: PROTAC activity at CRBN/DYRK1A in Flp-In-T-REx-293 cells overexpressing GFP-DYRK1A assessed as maximal reduction of GFP fluorescence at 1 uM measured upto 6 hrs by fluorescence based phase contrast microscopy analysis relative to control; format: cell-based
[37] = target: T2, Protein cereblon/Dual specificity tyrosine-phosphorylation-regulated kinase 1A; assay: Competitive binding affinity to CRBN/DYRK1A (unknown origin) assessed as dissociation rate constant Koff; format: protein assay
[38] = Solubility of the compound in PBS buffer; format: physicochemical
[39] = target: T2, Protein cereblon/Dual specificity tyrosine-phosphorylation-regulated kinase 1A; assay: PROTAC activity at CRBN/DYRK1A in HEK293 cells assessed as induction of degradation of DYRK1A at 100 nM pretreated with bortezomib followed by compound addition and incubated for 8 hrs; format: cell-based

**Q.** With `Cc1nc2ccc(-c3ccnc(N)c3)nc2n1-c1ccc(N2CCN(CC#Cc3ccc(N4CCC(C(=O)N5CCC(n6cc(CNc7cccc8c7C(=O)N(C7CCC(=O)NC7=O)C8=O)cn6)CC5)CC4)nc3)CC2)c(F)c1` (stereo unspecified) as the compound, how does the CLint scaled [1] read?
**A.** Its CLint scaled is 14 mL/min/kg.

**Q.** What about the Activity [2] of the same compound?
**A.** The Activity was “Active”.

**Q.** What about the Activity (SH-SY5Y) of the same compound?
**A.** The Activity was “Active; Compound Showed Moderate Toxicity”.

**Q.** And the CLint scaled [3]?
**A.** Its CLint scaled is 3.1 mL/min/kg.

**Q.** And the Activity [4]?
**A.** Its Activity is “inactive”.

**Q.** What about the MRT [5] of the same compound?
**A.** Its MRT is 2.51 h.

**Q.** And the Cmax [6]?
**A.** The Cmax was 8130 ng/mL.

**Q.** What about the Activity [7] of the same compound?
**A.** The Activity was “inactive”.

**Q.** And the Activity [8]?
**A.** The Activity was “Active”.

**Q.** What about the Cmax [9] of the same compound?
**A.** Its Cmax is 18.5 ng/mL.

**Q.** And the Activity [10]?
**A.** The Activity was “inactive”.

**Q.** What about the Activity (HEK293) of the same compound?
**A.** Its Activity is “inactive”.

**Q.** And the bioavailability [11]?
**A.** Its bioavailability is 109%.

**Q.** What about the Papp [12] of the same compound?
**A.** Its Papp is under 0.005 ×10⁻⁶ cm/s.

**Q.** And the bioavailability [13]?
**A.** Its bioavailability is 0.25%.

**Q.** What about the Vd [14] of the same compound?
**A.** The Vd was 0.614 L/kg.

**Q.** What about the Activity [15] of the same compound?
**A.** The Activity was 0.74 h⁻¹.

**Q.** And the AUC(0-t) [16]?
**A.** The AUC(0-t) was 56 ng·h/mL.

**Q.** What about the Activity [17] of the same compound?
**A.** The Activity was “Active”.

**Q.** And the Activity [18]?
**A.** Its Activity is “Active”.

**Q.** And the Activity [19]?
**A.** The Activity was 100%.

**Q.** What about the half-life [20] of the same compound?
**A.** The half-life was 2.28 h.

**Q.** What about the Activity [21] of the same compound?
**A.** Its Activity is “inactive”.

**Q.** What about the Papp A→B [22] of the same compound?
**A.** The Papp A→B was under 0.27 ×10⁻⁶ cm/s.

**Q.** What about the Activity [23] of the same compound?
**A.** Its Activity is “Active”.

**Q.** And the Activity [24]?
**A.** The Activity was “inactive”.

**Q.** And the half-life [25]?
**A.** Its half-life is 2.11 h.

**Q.** What about the Activity [26] of the same compound?
**A.** Its Activity is “inactive”.

**Q.** What about the AUC(0-inf) [27] of the same compound?
**A.** The AUC(0-inf) was 27100 ng·h/mL.

**Q.** What about the Activity [28] of the same compound?
**A.** Its Activity is “inactive”.

**Q.** And the half-life [29]?
**A.** Its half-life is 1.64 h.

**Q.** And the Emax [30]?
**A.** Its Emax is 66%.

**Q.** What about the Tmax [31] of the same compound?
**A.** The Tmax was 0.25 h.

**Q.** And the fraction unbound [32]?
**A.** Its fraction unbound is under 0.0062.

**Q.** What about the AUC(0-t) [33] of the same compound?
**A.** The AUC(0-t) was 2460 ng·h/mL.

**Q.** And the CLint scaled [34]?
**A.** The CLint scaled was 10.1 mL/min/kg.

**Q.** What about the Activity [35] of the same compound?
**A.** Its Activity is “Active”.

**Q.** What about the Emax [36] of the same compound?
**A.** Its Emax is 98%.

**Q.** And the K [37]?
**A.** The K was 7.25 10^-4/s.

**Q.** And the solubility [38]?
**A.** The solubility was under 9 nM.

**Q.** What about the Activity [39] of the same compound?
**A.** The Activity was “inactive”.
